Marks after values point to notes of the source that are not given here.
Legend:
[1] = test system: BT474 (human breast tumor line); test: BT474 subcutaneous human xenograft mouse model, tumor growth; assay type: in vivo, SCID mice; details: for tumor growth inhibition: monotherapy, FIG. 1, range over doses
Protocol: The BT474 xenografts were maintained by serial transplantation of tumor fragments in SCID mice. Tumors are initiated by injection of tumor fragments subcutaneously in the axillary region.
(§1) For the xenograft models used here, solid tumors were measured by electronic caliper measurement through the skin. Measurements were typically made twice weekly.
Drugs were administered by P.O. route. […] These studies were performed under IACUC #468 and 603. The results are illustrated in Tables 1-4, and FIGS. 1 and 2. FIGS. 1 and 2 are the graphical representation of the data contained in Tables 3 and 4, respectively.
The column labeled “Exp. 1” contains the results presented in FIG. 1 for the last data point on the graph. The column labeled “Exp. 2” contains analogous results from an independent experiment. Data are presented as percent inhibition of tumor growth, as compared to vehicle.

[2] = test system: NCI-H322 (non-small cell lung carcinoma); test: NCI H322 subcutaneous human xenograft mouse model, tumor growth; assay type: in vivo, SCID mice; details: for tumor growth inhibition: monotherapy, FIG. 2, range over doses
Protocol: NCI H322 cells obtained from the ATCC and were cultured in RPMI 1640+10% Fetal bovine serum, Sodium pyruvate and L-Glutamine at […] in a 95/5% air/CO2 atmosphere. Cells were harvested following trypsin digestion and brought to a density of 2×10^6 cells/200 μl in PBS. Tumors were initiated by injection of the cell suspension subcutaneously in the axillary region. In addition some experiments were performed following serial transplantation of tumor fragments in SCID mice. Tumors were initiated by injection of tumor fragments subcutaneously in the axillary region.
as §1
Drugs were administered by P.O. route. […] These studies were performed under IACUC #468 and 603.
Data are presented as percent inhibition of tumor growth, as compared to vehicle.

[3] = Exp. 1, Example 1 30 mg/kg P.O. once daily
[4] = Exp. 1, Example 1 100 mg/kg P.O. once daily
[5] = Exp. 2, Example 1 30 mg/kg P.O. once daily
[6] = Exp. 2, Example 1 100 mg/kg P.O. once daily
[7] = Exp. 1, Example 3 60 mg/kg P.O. once daily

`Cc1ccc(Nc2nccc(N(C)c3ccc4c(C)n(C)nc4c3)n2)cc1S(N)(=O)=O` [Example 1, 5-({4-[(2,3-dimethyl-2H-indazol-6-yl)(methyl)amino]pyrimidin-2-yl}amino)-2-methylbenzenesulfonamide] gave a Mean tumor volume ([1]; Day 36, Ex. 1 30 mg/kg) of 281 mm^3, a Mean tumor volume ([1]; Day 36, Ex. 1 100 mg/kg) of 293 mm^3 and a Mean tumor volume ([1]; Day 38, Ex. 1 30 mg/kg) of 406 mm^3. The Mean tumor volume ([1]; Day 38, Ex. 1 100 mg/kg) was 417 mm^3, the Mean tumor volume ([1]; Day 41, Ex. 1 30 mg/kg) was 481 mm^3 and the Mean tumor volume ([1]; Day 41, Ex. 1 100 mg/kg) was 453 mm^3. It also gave a Mean tumor volume ([1]; Day 44, Ex. 1 30 mg/kg) of 601 mm^3, a Mean tumor volume ([1]; Day 44, Ex. 1 100 mg/kg) of 519 mm^3 and a Mean tumor volume ([1]; Day 49, Ex. 1 30 mg/kg) of 722 mm^3. The Mean tumor volume ([1]; Day 49, Ex. 1 100 mg/kg) was 519 mm^3, the Mean tumor volume ([1]; Day 52, Ex. 1 30 mg/kg) was 777 mm^3 and the Mean tumor volume ([1]; Day 52, Ex. 1 100 mg/kg) was 515 mm^3. It also gave a Mean tumor volume ([1]; Day 55, Ex. 1 30 mg/kg) of 860 mm^3, a Mean tumor volume ([1]; Day 55, Ex. 1 100 mg/kg) of 496 mm^3 and a Mean tumor volume ([1]; Day 57, Ex. 1 30 mg/kg) of 954 mm^3. The Mean tumor volume ([1]; Day 57, Ex. 1 100 mg/kg) was 513 mm^3, the “percent inhibition of tumor growth, as compared to vehicle” value (“percent inhibition of tumor growth” below) [1, 3] was 16% and the “percent inhibition of tumor growth” value [1, 4] was 78* %. The “percent inhibition of tumor growth” value [1, 5] was 47* %, the “percent inhibition of tumor growth” value [1, 6] was 64* % and the tumor growth inhibition [1] was 16-78%. The Mean tumor volume ([2]; Day 29, Ex. 1 30 mg/kg) was 182 mm^3, the Mean tumor volume ([2]; Day 29, Ex. 1 100 mg/kg) was 166 mm^3 and the Mean tumor volume ([2]; Day 34, Ex. 1 30 mg/kg) was 351 mm^3. For the same compound, the Mean tumor volume ([2]; Day 34, Ex. 1 100 mg/kg) was 268 mm^3, the Mean tumor volume ([2]; Day 37, Ex. 1 30 mg/kg) was 358 mm^3 and the Mean tumor volume ([2]; Day 37, Ex. 1 100 mg/kg) was 266 mm^3. For the same compound, the Mean tumor volume ([2]; Day 41, Ex. 1 30 mg/kg) was 329 mm^3, the Mean tumor volume ([2]; Day 41, Ex. 1 100 mg/kg) was 316 mm^3 and the Mean tumor volume ([2]; Day 44, Ex. 1 30 mg/kg) was 309 mm^3. It also gave a Mean tumor volume ([2]; Day 44, Ex. 1 100 mg/kg) of 312 mm^3, a Mean tumor volume ([2]; Day 48, Ex. 1 30 mg/kg) of 377 mm^3 and a Mean tumor volume ([2]; Day 48, Ex. 1 100 mg/kg) of 297 mm^3. For the same compound, the Mean tumor volume ([2]; Day 51, Ex. 1 30 mg/kg) was 389 mm^3, the Mean tumor volume ([2]; Day 51, Ex. 1 100 mg/kg) was 313 mm^3 and the “percent inhibition of tumor growth” value [2, 3] was 34%. The “percent inhibition of tumor growth” value [2, 4] was 56* %, the “percent inhibition of tumor growth” value [2, 5] was 20% and the “percent inhibition of tumor growth” value [2, 6] was 62%. For the same compound, the “percent inhibition of tumor growth” value ([2]; Exp. 3, Example 1 30 mg/kg P.O. once daily) was 86* %, the “percent inhibition of tumor growth” value ([2]; Exp. 3, Example 1 100 mg/kg P.O. once daily) was 88* % and the tumor growth inhibition [2] was 86-88%.
`CS(=O)(=O)CCNCc1ccc(-c2ccc3ncnc(Nc4ccc(OCc5cccc(F)c5)c(Cl)c4)c3c2)o1` [Example 3, N-{3-Chloro-4-[(3-fluorobenzyl)oxy]phenyl}-6-[5-({[2-(methanesulphonyl)ethyl]amino}methyl)-2-furyl]-4-quinazolinamine] showed a Mean tumor volume ([1]; Day 36, Ex. 3 60 mg/kg) of 235 mm^3, a Mean tumor volume ([1]; Day 36, Ex. 3 200 mg/kg) of 219 mm^3 and a Mean tumor volume ([1]; Day 38, Ex. 3 60 mg/kg) of 328 mm^3. It also gave a Mean tumor volume ([1]; Day 38, Ex. 3 200 mg/kg) of 262 mm^3, a Mean tumor volume ([1]; Day 41, Ex. 3 60 mg/kg) of 367 mm^3 and a Mean tumor volume ([1]; Day 41, Ex. 3 200 mg/kg) of 184 mm^3. For the same compound, the Mean tumor volume ([1]; Day 44, Ex. 3 60 mg/kg) was 485 mm^3, the Mean tumor volume ([1]; Day 44, Ex. 3 200 mg/kg) was 242 mm^3 and the Mean tumor volume ([1]; Day 49, Ex. 3 60 mg/kg) was 554 mm^3. For the same compound, the Mean tumor volume ([1]; Day 49, Ex. 3 200 mg/kg) was 288 mm^3, the Mean tumor volume ([1]; Day 52, Ex. 3 60 mg/kg) was 633 mm^3 and the Mean tumor volume ([1]; Day 52, Ex. 3 200 mg/kg) was 270 mm^3. The Mean tumor volume ([1]; Day 55, Ex. 3 60 mg/kg) was 763 mm^3, the Mean tumor volume ([1]; Day 55, Ex. 3 200 mg/kg) was 219 mm^3 and the Mean tumor volume ([1]; Day 57, Ex. 3 60 mg/kg) was 878 mm^3. For the same compound, the Mean tumor volume ([1]; Day 57, Ex. 3 200 mg/kg) was 214 mm^3, the “percent inhibition of tumor growth” value [1, 7] was 21% and the “percent inhibition of tumor growth” value ([1]; Exp. 1, Example 3 200 mg/kg P.O. once daily) was 99* %. The “percent inhibition of tumor growth” value ([1]; Exp. 2, Example 3 60 mg/kg P.O. once daily) was 58* %, the “percent inhibition of tumor growth” value ([1]; Exp. 2, Example 3 200 mg/kg P.O. once daily) was 85* % and the tumor growth inhibition [1] was 21-99%. The Mean tumor volume ([2]; Day 29, Ex. 3 20 mg/kg) was 167 mm^3, the Mean tumor volume ([2]; Day 29, Ex. 3 60 mg/kg) was 175 mm^3 and the Mean tumor volume ([2]; Day 34, Ex. 3 20 mg/kg) was 288 mm^3. For the same compound, the Mean tumor volume ([2]; Day 34, Ex. 3 60 mg/kg) was 252 mm^3, the Mean tumor volume ([2]; Day 37, Ex. 3 20 mg/kg) was 403 mm^3 and the Mean tumor volume ([2]; Day 37, Ex. 3 60 mg/kg) was 313 mm^3. For the same compound, the Mean tumor volume ([2]; Day 41, Ex. 3 20 mg/kg) was 511 mm^3, the Mean tumor volume ([2]; Day 41, Ex. 3 60 mg/kg) was 400 mm^3 and the Mean tumor volume ([2]; Day 44, Ex. 3 20 mg/kg) was 616 mm^3. It also gave a Mean tumor volume ([2]; Day 48, Ex. 3 20 mg/kg) of 837 mm^3, a Mean tumor volume ([2]; Day 48, Ex. 3 60 mg/kg) of 577 mm^3 and a Mean tumor volume ([2]; Day 51, Ex. 3 20 mg/kg) of 871 mm^3. For the same compound, the Mean tumor volume ([2]; Day 51, Ex. 3 60 mg/kg) was 649 mm^3, the “percent inhibition of tumor growth” value [2, 7] was 75* % and the “percent inhibition of tumor growth” value ([2]; Exp. 2, Example 3 20 mg/kg P.O. once daily) was 31%. For the same compound, the “percent inhibition of tumor growth” value ([2]; Exp. 3, Example 3 20 mg/kg P.O. once daily) was 28%, the “percent inhibition of tumor growth” value ([2]; Exp. 3, Example 3 60 mg/kg P.O. once daily) was 54% and the tumor growth inhibition [2] was 28-54%.
